Laboratory results taken from US11345659B2, “Pipecolic esters for inhibition of the proteasome” (THE BOARD OF REGENTS OF THE UNIVERSY OF TEXAS SYSTEM, priority 2018, dated 2022).
Where two headings read alike, the source gives them in different places.

Assays:
[1] = molecular target: T1, 20 S human housekeeping proteasome (Homo sapiens, UniProt P25787+P25789); assay: ChT-L peptidase activity of 20 S proteasome activated with Rpt5 peptide; assay type: biochemical
T1 construct: purified from erythrocytes; purchased Enzo Life Sciences, Inc. (Farmingdale, N.Y.); host or cells: human erythrocytes
Experimental: Human housekeeping 20 S and 26 S and complexes purified from erythrocytes were purchased from Enzo Life Sciences, Inc. (Farmingdale, N.Y.). The 1 mg/ml stock 20 S proteasome was diluted to 0.2 mg/ml working solution in 50 mM Tris/HCl, pH 8 containing 20% glycerol (dilution buffer). For the 26 S proteasome stock, the dilution buffer was supplemented with 2 mM ATP, 1 mM MgCl2, and 1 mM DTT (dithiothreitol). The ChT-L peptidase activity was measured as arbitrary intensity units of fluorescence emitted by 7-amino-4-methylcoumarin (AMC) released from the canonical model peptide substrate succinyl-LeuLeuValTyr-methylcoumarin (SucLLVY-MCA; Bachem Bioscience Inc., Philadelphia, Pa.), used at concentration of 100 μM. Free AMC (Sigma-Aldrich, St. Louis, Mo.) was used as the standard. The Rpt5 C-terminal peptide was synthesized (standard solid-phase peptide chemistry) and purified to at least 98% purity by GenScript (Piscataway, N.J.). The Rpt5 peptide and the peptide substrate were dissolved in dimethylsulfoxide (DMSO) and such stock solutions were stored at −20° C. The total concentration of DMSO in final reaction mixtures never exceeded 3% (vol/vol).
The reaction was carried out in 96-well plates, in 100 μL of reaction mixture, for 1 hour at 37° C. In the case of 20 S proteasome, the reaction mixture consisted of 45 mM Tris/HCl, pH 8, 100 mM KCl with premixed 10 μM Rpt5 peptide and 100 μM Suc-LLVY-MCA, to which 200 ng (nearly […]) of proteasome and desired concentration of tested compounds in 1 μL of DMSO were added. To test the activity of 26 S proteasome under conditions challenging coordination of the three pairs of peptidase active centers, a mixture of three canonical substrates specific for the ChT-L (SucLLVY-MCA), trypsin-like (T-L; BocLRR-MCA) and caspase-like (Casp-L; Z-LLE-MCA) was used with each of the substrates at 33.3 μM (100 μM of the total substrate concentration). The reaction mixture in this case consisted of 50 mM Tris/HCl, pH 8, 20 mM NaCl, premixed with the substrates and 2 mM ATP, to which 200 ng (nearly 0.1 nmol) of the 26 S working solution and desired concentration of tested compounds in 0.5 μL of DMSO were added. The reaction rates were calculated from a linear segment of kinetic curves constructed from measurements in 1-minutes intervals (Fluoroskan Ascent plate reader; Thermo Fisher Scientific Inc., Waltham, Mass.). Reaction rates were calculated using a linear fit executed by Slope Analyzer and Enzyme Kinetics applications launched within Origin Pro 2017 (OriginLab). Specific activity of the control 20 S proteasome activated with the Rpt5 peptide was in the range of 1.4 to 2.3 nanomoles of AMC product released by 1 mg of 20 S per second (1.95±0.24; n=18). Specific activity of the control 26 S proteasome challenged with three substrates reached on average 0.28±0.06 nanomoles of AMC product released by 1 mg of the enzyme per second (n=6). For comparison, degradation of the canonical Suc-LLVY-MCA substrate by the control 26 S proteasome preceded with a rate in the range of 0.6-0.8 nanomoles of AMC released per mg of the enzyme per second. The data are presented as mean±SD or as a representative set from at least 3 independent experiments.
The compounds were evaluated using the 20 S human housekeeping proteasome. It was activated with the Rpt5 derived 10-residue peptide that contains the C-terminal HbYX (hydrophobic-Tyr-any AA) motif activating the proteasome in trans and to some extend mimic the activation by the 19 S regulatory particle (Osmulski and Gaczynska (2013) Molecular pharmacology 84: 104-113; Smith et al. (2006) J. Struct. Biol. 156: 72-83; Smith et al. (2007) Mol. Cell 27: 731-744). Proteolytic activity was monitored over time using a fluorogenic peptide substrate specific for the chymotrypsin-like active center (ChT-L, Suc-LLVY-AMC) in the presence of a concentration range of the inhibitors. […]

immunoproteasomes = immunoproteasomes (Homo sapiens, UniProt P25787+P25789); assay: Activity of housekeeping and immunoproteasomes activated with Rpt5-derived peptide; assay type: biochemical
Text: Immuno and housekeeping forms are serving distinct physiological functions. The clinically used competitive inhibitors do target them with a similar efficacy; however such outcome is not obvious with allosteric inhibitors such as compound 3. Referring to FIG. 11, the relative activities of the proteasome forms are shown, activated with the Rpt5-derived peptide and treated with compound 3.

SMILES: COc1cc(CCCOC(=O)[C@@H]2CCCCN2C(=O)OCc2ccccc2)cc(OC)c1OC [Compound 3, 1-benzyl 2-(3-(3,4,5-trimethoxyphenyl)propyl) (S)-piperidine-1,2-dicarboxylate]
- IC50 ([1]; ChT-L, Suc-LLVY-AMC substrate, 20 S activated with Rpt5 peptide, read-out: IC50): 2000 nM
- IC50 ([1]; summary of FIG. 3A and FIG. 3B, read-out: in vitro determined IC50 values for peptidase activities): 2000 to 3000 nM
- remaining ChT-L activity ([1]; tRpt5 added first, n=3): 53%±7%
- inhibition of housekeeping versus immunoproteasomes (immunoproteasomes): inhibits both housekeeping and immunoproteasomes with similar efficacy
